Patent US20080214565A1, “Oxazolidinone Derivatives as Antimicrobials” (priority 2003, published 2008)
Values after ≈ are worked out from the molar mass of the structure shown.

Experiments:
Strep. pyog. ATCC 19615 = test: MIC by agar incorporation method, S. pyogenes 19615; format: cell-based, Streptococcus pyogenes; settings: in vitro, 18 hours
Description: (§1) The compounds of the invention display antibacterial activity when tested by the agar incorporation method. The following minimum inhibitory concentrations (μg/ml) were obtained for representative compounds of the invention which are given below in the following table.
(§2) 1) S. aureus ATCC 25923—Staphylococus aureus ATCC 25923 2) MRSA 15187—Methicillin Resistant Staphylococcus aureus 3) Ent. faecalis ATCC 29212—Enterococcus faecalis ATCC 29212 4) Ent. faecium 6A—Enterococcus faecium 6A Van®, Cipro® 5) Strep. pne. ATCC 6303—Streptococcus pneumoniae ATCC 6303 6) Strep. pyog. ATCC 19615—Streptococcus pyogenes 7) S. epidermidis—Staphylococcus epidermidis ATCC 12228
(§3) Briefly, the compounds were dissolved in dimethylsulfoxide and doubling dilution of the compounds were incorporated into Meer Hilton agar before solidification. Inoculum was prepared by suspending 4 to 5 colonies into 5 ml of normal saline solution and adjusting the turbility to 0.5 Macfarland turbidity standard tables (1.5×10^8 CFU/ml), after appropriate dilutions, 10^4 CFU/spot was transferred into the surface of dried plate and incubated for 18 hours (24 hours for MRSN studies). The concentration showing no growth of the inoculated culture was recorded as the MIC. Appropriate ATCC standard strains were simultaneously tested and result recorded only when the MIC's against standard antibiotics were within the acceptable range.

S. aureus ATCC 25923 = test: MIC by agar incorporation method, S. aureus ATCC 25923; format: cell-based, Staphylococus aureus; settings: in vitro, 18 hours
Description: as §1, §2, §3

Ent. faecalis ATCC 29212 = test: MIC by agar incorporation method, E. faecalis 29212; format: cell-based, Enterococcus faecalis; settings: in vitro, 18 hours
Description: as §1, §2, §3

MRSA 562 = test: MIC by agar incorporation method, MRSA 562; format: cell-based, Methicillin Resistant Staphylococcus aureus; settings: in vitro, 24 hours
Experimental: as §1, §3

VRE 6A (Ent. faecium 6A) = test: MIC by agar incorporation method, VRE 6A; format: cell-based, Enterococcus faecium; settings: in vitro, 18 hours
Description: as §1, §2, §3

Strep. pne. ATCC 6303 = test: MIC by agar incorporation method, S. pneum 6303; format: cell-based, Streptococcus pneumoniae; settings: in vitro, 18 hours
Description: as §1, §2, §3

MRSA 33 = test: MIC by agar incorporation method, MRSA 33; format: cell-based, Methicillin Resistant Staphylococcus aureus; settings: in vitro, 24 hours
Experimental: as §1, §3

MRSA 15187 = test: MIC by agar incorporation method, MRSA 15187; format: cell-based, Methicillin Resistant Staphylococcus aureus; settings: in vitro, 24 hours
Description: as §1, §2, §3

S. pneum AB34 = test: MIC by agar incorporation method, S. pneum AB34; format: cell-based, Streptococcus pneumoniae; settings: in vitro, 18 hours
Experimental: as §1, §3

NC(=S)NC[C@H]1CN(c2ccc(N3CCN(Cc4ccc([N+](=O)[O-])s4)CC3)c(F)c2)C(=O)O1 [Compound No. 12, (S)—N-[1-[[3-[3-Fluoro-4-[N-1-[4-{2-thienyl-(5-nitro)methyl}]piperazinyl]phenyl]-2-oxo-5-oxazolidinyl]methyl]]-thiourea]
minimum inhibitory concentration, S. pyogenes 19615 (Strep. pyog. ATCC 19615): <0.25 µg/mL | minimum inhibitory concentration, S. aureus 259231 (S. aureus ATCC 25923): 1 µg/mL (≈ 2.02 µM) | minimum inhibitory concentration, E. faecalis 29212 (Ent. faecalis ATCC 29212): 1 µg/mL (≈ 2.02 µM) | minimum inhibitory concentration, MRSA 562 (MRSA 562): 0.5 µg/mL (≈ 1.01 µM) | minimum inhibitory concentration, VRE 6A (VRE 6A (Ent. faecium 6A)): 0.5 µg/mL (≈ 1.01 µM) | minimum inhibitory concentration, S. pneum 6303 (Strep. pne. ATCC 6303): 0.5 µg/mL (≈ 1.01 µM) | minimum inhibitory concentration, MRSA 33 (MRSA 33): 1 µg/mL (≈ 2.02 µM) | minimum inhibitory concentration, MRSA 15187 (MRSA 15187): 0.5 µg/mL (≈ 1.01 µM) | minimum inhibitory concentration, S. pneum AB34 (S. pneum AB34): 0.5 µg/mL (≈ 1.01 µM)

NC(=S)NC[C@H]1CN(c2ccc(N3CCN(Cc4ccc([N+](=O)[O-])o4)CC3)c(F)c2)C(=O)O1 [Compound No. 10, (S)—N-[1-[[3-[3-Fluoro-4-[N-1-[4-{2-furyl-(5-nitro)methyl}]piperazinyl]phenyl]-2-oxo-5-oxazolidinyl]methyl]]-thiourea]
minimum inhibitory concentration, S. pyogenes 19615 (Strep. pyog. ATCC 19615): 0.25 µg/mL (≈ 0.522 µM) | minimum inhibitory concentration, S. aureus 259231 (S. aureus ATCC 25923): 1 µg/mL (≈ 2.09 µM) | minimum inhibitory concentration, E. faecalis 29212 (Ent. faecalis ATCC 29212): 0.5 µg/mL (≈ 1.04 µM) | minimum inhibitory concentration, MRSA 562 (MRSA 562): 1 µg/mL (≈ 2.09 µM) | minimum inhibitory concentration, VRE 6A (VRE 6A (Ent. faecium 6A)): 1 µg/mL (≈ 2.09 µM) | minimum inhibitory concentration, S. pneum 6303 (Strep. pne. ATCC 6303): <0.06 µg/mL | minimum inhibitory concentration, MRSA 33 (MRSA 33): 1 µg/mL (≈ 2.09 µM) | minimum inhibitory concentration, MRSA 15187 (MRSA 15187): 1 µg/mL (≈ 2.09 µM) | minimum inhibitory concentration, S. pneum AB34 (S. pneum AB34): 0.24 µg/mL (≈ 0.502 µM)
